Measured values from patent EP0195397A1, “m-Cyanophenethanolamines as animal growth promoters and antilipogenic agents” (AMERICAN CYANAMID COMPANY, priority 1985, dated 1986).
Read-outs that look alike come from different tables or passages of the source.

Tests used:
[1] = molecular target: T1, Beta-1 adrenergic receptor membranes (Meleagris gallopavo, UniProt P07700); assay: Beta-1 adrenergic activity by (H3) dihydroalprenolol radioligand binding to receptor membranes; set-up: species or system turkey
T1 construct: Freshly drawn heparinized whole blood from turkeys and rats is centrifuged; from tissue; host or cells: erythrocyte membranes from freshly drawn turkey blood
T1 sequence (P07700 whole entry): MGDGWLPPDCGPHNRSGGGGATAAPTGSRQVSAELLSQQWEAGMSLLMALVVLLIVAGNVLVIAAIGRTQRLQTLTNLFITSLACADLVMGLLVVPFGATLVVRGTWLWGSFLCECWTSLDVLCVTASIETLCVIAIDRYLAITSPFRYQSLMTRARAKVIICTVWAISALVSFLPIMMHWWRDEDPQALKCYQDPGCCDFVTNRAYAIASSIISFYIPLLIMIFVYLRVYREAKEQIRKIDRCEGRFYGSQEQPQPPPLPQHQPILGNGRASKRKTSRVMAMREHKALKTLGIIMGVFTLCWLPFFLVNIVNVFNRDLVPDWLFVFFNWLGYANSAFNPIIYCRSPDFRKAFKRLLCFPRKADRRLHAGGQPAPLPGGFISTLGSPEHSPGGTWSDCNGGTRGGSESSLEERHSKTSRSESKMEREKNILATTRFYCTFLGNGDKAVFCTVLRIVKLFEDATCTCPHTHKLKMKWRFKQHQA
Description: Beta-1 adrenergic activity of experimental compounds is identified by radioactive ligand-binding studies by using beta adrenergic receptor membranes and adrenergic antagonist (H3) dihydroalprenolol (DHA). Binding of (H3) DHA to membrane fractions is assayed by filtration on glass fiber filters. Specific binding is defined as total radioactivity bound minus nonspecific bound radioactivity, i.e., binding in the presence of 100 µM non-radioactive DHA. Results are expressed as the concentrations of the compound required to displace […] radioactive ligand from binding of beta adrenergic receptors (K-50).
In these tests, beta adrenergic receptor membranes are incubated with radioactive dihydroalprenolol (H3 DHA) and experimental compounds. The bound radio- ligand is separated by filtration on glass fiber filters and counted by scintillation counter.
Beta-1 adrenergic receptor membranes are isolated from turkey and rat erythrocytes respectively using the procedures of: • Hancock, A., DeLean, A., Lefkowitz, R. J. Mol. Pharmacol. 16:1, 1979; • DeLean, A, Hancock A., Lefkowitz, R. J. Mol. Pharmacol. 21:5, 1979; or • Lefkowitz, R. J., Stadel, J. M., and Caron, M. G. Ann. Rev. Biochem 52:157, 1983.
Freshly drawn heparinized whole blood from turkeys and rats is centrifuged for five minutes ([…]). The plasma is withdrawn; the remaining erythrocytes are suspended in 150mM sodium chloride solutions and centrifuged. The cells are resuspended and centrifuged twice more. […] The protein concentration of receptor membranes is determined by the biuret method.
To duplicate incubation, tubes are added 200 µl suspended membranes (200 µg protein), 25 µl of compound in solution or buffer and 25 µl (H3) dihydroalprenolol ([…]). […] The filters are rinsed three times with 5 mL of cold buffer (145 mM NaCl, 1 mM ethylenediaminetetraacetic acid, and 10 mM tris, pH 7.4) and subsequently counted by liquid scintillation counter in 10 mL of aquasol. […]

[2] = Evaluation of test compounds as animal growth promoters and antilipogenic agents - mouse test; assay type: in vivo, CFI female mice; conditions: 12-day test period; for Gain (grams): weight gain per cage of ten mice; for % Reduction in fat pad weight vs controls: right uterine fat pad, minus sign = reduction
Description: CFI female mice from Carworth Farms are received when they are six-weeks old. They are housed ten to a cage in air-conditioned rooms (22 °C to 25 °C) with automatically-controlled lights, 14 hours on and ten hours off. The basal diet used in these studies is Purina Laboratory Chow (see description below) which is supplied ad libitum. The following is a description of the diet to which the growth-promoting compounds were added. Thirteen days after arrival, the mice are weighed in groups of ten and assigned at random to the different treatments. Each of the treatments is tested in three replicates, i.e., in three cages of ten mice each. There are ten cages of ten control mice each. Drugs are mixed in the diet at the dosage level indicated. Feed and water are offered ad libitum for a 12-day test period. Feed spilled is collected during the test period. At the end of the test period, the collected feed is weighed, and the mean feed consumption per cage of ten mice is determined for each treatment. The mice are weighed as a group of ten, and the weight gain determined. The mice are sacrificed by cervical dislocation. The right uterine fat pad of each mouse is removed. The fat pads for each cage of ten mice are weighed as a unit. Reduction in fat pad weights of animals is generally indicative of a reduction of total body fat of the treated animals.

[3] = concentration required to displace 50% radioactive ligand ((H3) DHA), 23°C, one hour, read-out: β1 K-50

SMILES	IC50 [1, 3] [µM]	Gain (grams) ([2]; 3 ppm in diet)	Gain (grams) ([2]; 6 ppm in diet)	Gain (grams) ([2]; 12 ppm in diet)	Gain (grams) ([2]; 25 ppm in diet)	Gain (grams) ([2]; 50 ppm in diet)	% Reduction in fat pad weight vs controls ([2]; 100 ppm in diet) [%]	Gain (grams) ([2]; 100 ppm in diet)	Gain (grams) ([2]; 200 ppm in diet)	% Reduction in fat pad weight vs controls ([2]; 25 ppm in diet)	% Reduction in fat pad weight vs controls ([2]; 50 ppm in diet) [%]	IC50 [1] [µM]
CC(C)NCC(O)c1cccc(C#N)c1 (stereo not drawn) [the 4th table, row 4 drawing]	> 100											
CC(C)(C)NCC(O)c1cccc(C#N)c1 (stereo not drawn) [the 4th table, row 5 drawing]	> 100											
CC(C)NCC(O)c1cccc(C#N)c1 (stereo not drawn) [the 2nd table drawing]		32.4	23.4	29.4	37.1	37.4	-9.1	37.3	39.0			
CC(C)(C)NCC(O)c1cccc(C#N)c1 (stereo not drawn) [the 3rd table drawing]		29.3	37.4	30.5	35.9	41.1	-16.9	36.1	33.2	+5.2%	-11.6	
CC(C)(C)NCC(O)c1cc(Cl)c(N)c(Cl)c1 (stereo not drawn) [Clenbuterol, reference compound]												0.977
